Results from ChEMBL document CHEMBL1154270, “Light-independent metabolomics of endophytic Thielavia subthermophila provides insight into microbial hypericin biosynthesis” (J Nat Prod, 2009).
Active and inactive are the calls of the source. The rule behind the calls is not given here.

Experiments:
[1] = test system: THP-1; assay: Cytotoxicity against human THP1 cells after 48 hrs assessed morphological changes compound exposed to light for 20 mins before treatment; assay type: functional, cell-based
[2] = test system: THP-1; assay: Cytotoxicity against human THP1 cells after 48 hrs assessed as morphological changes in the dark condition; assay type: functional, cell-based

| Compound | Activity [1] | Activity [2] |
| --- | --- | --- |
| Cc1cc(O)c2c(=O)c3c(O)cc(O)c4c5c(O)cc(O)c6c(=O)c7c(O)cc(C)cc7c(c65)c(c2c1)c34 | Active | Active |
| Cc1cc(O)c2c(c1)C(=O)c1cc(O)cc(O)c1C2=O | Active | Active |
| Cc1cc(O)c2c(c1)Cc1cc(O)cc(O)c1C2=O | Active | Active |
| Cc1cc(O)c2c(=O)c3c(O)cc(O)c4c5c(O)cc(O)c6c(=O)c7c(O)cc(C)c8c1c2c(c34)c(c78)c65 | Active | Active |
